Assay results taken from BindingDB's records for doi:10.7270/Q269721H (Nmmlsc, 2010).

Each compound was assayed against Guanine nucleotide-binding protein G(o) subunit alpha (Homo sapiens, UniProt P09471) (assay: modulators of RGS7 binding to Galphao – multiplexed assay, additional SAR round, SAR follow-up (AID 2826)).
Sequence of Guanine nucleotide-binding protein G(o) subunit alpha (P09471 whole entry): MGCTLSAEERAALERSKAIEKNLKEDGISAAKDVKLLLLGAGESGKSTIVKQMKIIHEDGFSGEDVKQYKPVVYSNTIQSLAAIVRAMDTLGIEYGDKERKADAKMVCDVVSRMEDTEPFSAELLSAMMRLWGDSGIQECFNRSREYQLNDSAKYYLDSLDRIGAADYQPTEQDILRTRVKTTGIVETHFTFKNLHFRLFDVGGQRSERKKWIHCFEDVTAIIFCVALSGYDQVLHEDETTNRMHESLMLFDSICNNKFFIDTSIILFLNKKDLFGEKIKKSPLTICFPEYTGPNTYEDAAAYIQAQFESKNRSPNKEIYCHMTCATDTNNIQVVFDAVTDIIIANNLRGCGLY

| SMILES | EC50 [µM] |
| --- | --- |
| O=C(c1sc2cc([N+](=O)[O-])ccc2c1Cl)N1CCNCC1 | > 30 |
| O=C(NCCCN1CCOCC1)c1sc2cc([N+](=O)[O-])ccc2c1Cl [3-chloranyl-N-(3-morpholin-4-ylpropyl)-6-nitro-1-benzothiophene-2-carboxamide] | > 30 |
| O=C(NCCCn1ccnc1)c1sc2cc([N+](=O)[O-])ccc2c1Cl [3-chloro-N-[3-(1-imidazolyl)propyl]-6-nitro-1-benzothiophene-2-carboxamide] | > 30 |

Continued, values first:

| EC50 [µM] | SMILES |
| --- | --- |
| > 30 | NC(=O)c1sc2cc([N+](=O)[O-])ccc2c1Cl [KSC-1-100] |
| > 30 | Cc1ccc2c(Cl)c(C(=O)NCCCN3CCOCC3)sc2c1 [KUC103874N] |
